From article PMC11813147, “Bioactivity assessment of peptides derived from salted jellyfish (Rhopilema hispidum) byproducts” (PLOS ONE, 2025)

How the values were obtained:
[1] = DPPH radical scavenging assay; format: biochemical; conditions: for DPPH radical scavenging activity (TEAC): 10 µL sample + 190 µL 0.1 mM DPPH in 70% ethanol, 30 min dark, room temperature, 517 nm, Trolox standard curve; for DPPH radical scavenging activity (TEAC) / DPPH, mean±SD: mean ± SD, n = 3; for DPPH, mean±SD / DPPH: supplement tables
Procedure: The DPPH radical scavenging activity of the sample was assessed following a modified protocol based on a previous study. In each well of a 96-well plate, 10 μL of the sample was added, followed by 190 μL of 0.1 mM DPPH solution in 70% ethanol. The mixture was then incubated at room temperature in the dark for 30 min. After the incubation period, the absorbance of the mixture was measured at 517 nm. The DPPH radical scavenging activity was calculated using the following equation (1):
DPPHradicalscavengingactivity%=Acontrol–Asample/Acontrol×100 (1)
In this equation, Acontrol represents the absorbance of a control solution containing all reagents except for the test samples, while Asample is the absorbance of the mixture (the sample combined with 0.1 mM DPPH). To determine the Trolox equivalent antioxidant capacity (TEAC), a Trolox standard curve was utilized. The results were expressed as millimoles of Trolox equivalents per milligram of protein (mM TE/mg protein).

[2] = ABTS radical scavenging assay; format: biochemical; conditions: supplement tables; for ABTS, mean±SD: n = 3
Procedure: The ABTS radical scavenging activity of the sample was measured using a method adapted from Mirzaei et al.. The ABTS radical was generated by mixing 7 mM ABTS with 2.45 mM potassium persulfate in a 1:1 ratio and incubating the mixture in the dark at room temperature for 12 to 16 h. The resulting solution was then diluted to achieve an absorbance of 0.74 ± 0.03 at 734 nm, using deionized water for adjustments. Next, 10 μL of the sample was added to 190 μL of the ABTS solution. The mixture was incubated in the dark for 7 min, after which the absorbance was measured at 734 nm. The ABTS radical scavenging activity (%) was calculated using the following equation (2):
ABTSradicalscavengingactivity%=Acontrol–Asample/Acontrol×100 (2)
In this equation, Acontrol refers to the absorbance of the control solution (which contains all reagents except the test samples), while Asample refers to the absorbance of the mixture containing the sample and the ABTS solution. To determine the Trolox equivalent antioxidant capacity (TEAC), a Trolox standard curve was used, and the results were expressed as millimoles of Trolox equivalents per milligram of protein (mM TE/mg protein).

[3] = Ferric reducing antioxidant power (FRAP) assay; format: biochemical
Procedure: The FRAP assay was conducted following the method outlined by Rumpf et al.. The FRAP solution was prepared by mixing 300 mM acetate buffer (pH 3.6), 10 mM TPTZ (2,4,6-Tris(2-pyridyl)-s-triazine) in 40 mM hydrochloric acid, and 20 mM FeCl3 in a ratio of 10:1:1. In a 96-well plate, 10 μL of the sample was combined with 190 μL of the FRAP solution and incubated in the dark for 15 min. The absorbance of the mixture was then measured at 593 nm. FeSO4 was used to create the standard curve, and the results were expressed as millimoles of FeSO4 equivalent per milligram of protein (mM FeSO4/mg protein).

[4] = test system: RAW 264.7; test: Anti-inflammation assay: released NO in LPS-stimulated RAW 264.7 (Griess); format: cell-based, Murine; conditions: then 1 µg/mL LPS 24 h; for Released NO: peptide 10 µg/mL 1 h; for Released NO, mean±SD: peptide 10 µg/mL pre-treatment 1 h, Griess reagent, n = 3
Procedure: (§1) Murine macrophage cells (RAW 264.7; ATCC TIB-71™) were cultured in Dulbecco’s Modified Eagle’s Medium (DMEM) that was supplemented with 10% heat-inactivated fetal bovine serum (FBS) and 1% antibiotic solution. Colorectal adenocarcinoma cells (CaCo-2; ATCC HTB 37™) were cultured in Eagle’s Minimum Essential Medium (EMEM), also supplemented with 10% heat-inactivated FBS and 1% antibiotic solution. Both cell types were maintained in a humidified incubator with 5% CO2. The cell culture medium was refreshed every three days.
The anti-inflammation assay was conducted following the method described by Barzkar et al. with slight modifications. RAW 264.7 (1 x 10^5 cells) was seeded into a 96-well plate to allow for cell attachment. After 24 h, the cells were pre-treated with fresh medium containing peptide samples at a concentration of 10 µg/mL for 1 h. Subsequently, the treated cells were stimulated with 1 µg/mL lipopolysaccharide (LPS) for an additional 24 h. Unstimulated cells were included as a negative control. At the end of the treatment period, the conditioned medium was collected for the determination of released nitric oxide (NO). Griess’s reagent (Promega) was utilized to measure the NO concentration, following the manufacturer’s instructions. A NO calibration curve was generated to quantify the released NO in the conditioned medium.

[5] = test system: RAW 264.7; test: Cytotoxicity assessment (MTT); format: cell-based, Murine; conditions: peptide 10 µg/mL, 72 h; for Cell viability, mean±SD: relative to untreated cells
Procedure: as §1
Cytotoxicity assessment was performed following the method described by Yang et al., with slight modifications. RAW 264.7 was seeded with 1 x 10^5 cells in a 96-well plate with an appropriate cell culture medium. After allowing the cells to attach, the medium was replaced with a fresh cell culture medium containing the peptide samples at a concentration of 10 µg/mL. The treated cells were incubated for an additional 72 h. At the designated time, fresh medium was added, which included 3-(4,5-dimethylthiazol-2-yl)-2,5-diphenyltetrazolium bromide (MTT) at a concentration of 0.5 mg/mL. After 3 h, formazan crystals were observed. The medium was then removed, and the crystals were dissolved in 100% dimethyl sulfoxide (DMSO). A microplate reader (Synergy HTX; Biotek, Multi-Mode Reader, Winooski, VT, USA) was utilized to measure the absorbance at 570 nm (measurement wavelength) and 630 nm (reference wavelength). The percentage of cell viability was calculated relative to untreated cells using the following equation (5):
Cellviability%=ODtreatment–ODblank/ODuntreated–ODblank×100 (5)
Where ODtreatment is the absorbance of the treated sample, ODuntreated is the absorbance of the untreated sample, and ODblank is the absorbance from wells without treated and untreated samples.

[6] = 10 µL sample + 190 µL FRAP solution, 15 min dark, 593 nm, FeSO4 standard curve, mean ± SD, n = 3, SD

Sequence	DPPH, mean±SD [1]	DPPH ([1]; replicate 1) [TE/mg protein]	DPPH ([1]; replicate 2) [TE/mg protein]	DPPH ([1]; replicate 3) [TE/mg protein]	ABTS, mean±SD [2]	ABTS ([2]; replicate 1) [TE/mg protein]	ABTS ([2]; replicate 2) [TE/mg protein]	ABTS ([2]; replicate 3) [TE/mg protein]	FRAP [3, 6]	FRAP ([3]; supplement tables, replicate 1) [mM FeSO4/mg protein]	FRAP ([3]; supplement tables, replicate 2) [mM FeSO4/mg protein]	FRAP ([3]; supplement tables, replicate 3) [mM FeSO4/mg protein]	Released NO ([4]; replicate 1) [µM]	Released NO ([4]; replicate 2) [µM]	Released NO ([4]; replicate 3) [µM]	Released NO, mean±SD ([4]; SD)	Cell viability ([5]; replicate 1) [%]	Cell viability ([5]; replicate 2) [%]	Cell viability ([5]; replicate 3) [%]	Cell viability, mean±SD ([5]; n = 3, SD)	other results
MVVACVLPEA [P16, synthesized peptide identified from jellyfish fraction PUR20C]	56.07±0.30^A TE/mg protein	55.89	55.89	56.42	121.31±0.87^D TE/mg protein	121.71	120.30	121.91	6.92 mM FeSO4/mg protein	8.05	7.63	5.10	35.17	33.44	35.17	34.59 ± 0.99 µM	81.01	81.37	81.19		DPPH radical scavenging activity (TEAC) [1]: strongest DPPH radical scavenging activity; DPPH radical scavenging activity (TEAC) ([1]; listed as MVVACVLPEA): 56.07 mM TE/mg protein; Released NO, mean±SD [4]: 34.59 µM; Cell viability, mean±SD ([5]; n = 3): without cytotoxic effects
PFTMYFLL [P14, synthesized peptide identified from jellyfish fraction PUR20C]	6.29±0.53^D TE/mg protein	6.29	5.76	6.82	119.57±1.33^E TE/mg protein	118.70	118.90	121.11	9.24±1.05 mM FeSO4/mg protein	10.36	9.10	8.26	32.06	31.03	34.48	32.52±1.76^F µM	87.69	89.45	93.14	90.09±2.78^B %	
HSVLTASYRN [P5, synthesized peptide identified from jellyfish fraction PUR20C]	3.20 TE/mg protein	2.84	3.11	3.64	123.24±0.75^C TE/mg protein	124.11	122.71	122.91	8.19 mM FeSO4/mg protein	7.63	9.52	7.42	34.13	33.44	36.20	34.59 ± 1.43 µM	92.44	89.27	81.01	87.58%	
KFNEVVYFL [P15, synthesized peptide identified from jellyfish fraction PUR20C]	6.20±1.00^D TE/mg protein	5.49	5.76	7.35	131.66±1.15^B TE/mg protein	132.32	130.32	132.32	4.61±0.73^H mM FeSO4/mg protein	3.84	4.68	5.31	32.75	32.75	34.82	33.44 µM	87.87	85.58	88.22	87.22%	
LNIPKPKLNLL [P11, synthesized peptide identified from jellyfish fraction PUR20C]	3.81±0.40^E TE/mg protein	3.90	3.37	4.17	3.91 TE/mg protein	4.11	3.71	3.91	6.36±0.63^G mM FeSO4/mg protein	6.36	7.00	5.73	36.55	35.86	37.58	36.66 ± 0.86 µM	84.53	85.41	84.18	84.71%	
